One data set concerns HIV-1RF. Particulars: infection of human T-lymphoblastoid cells by HIV-1RF in vitro; cited from earlier work.
Data set [1] relates to panel of human cancer cell lines. Particulars: mean over panel of human cancer cell lines; cited from earlier work.
The test system of data set [2] is NSCLC-N6, E39, P388, and M96 tumor cells. To be noted: range over NSCLC-N6, E39, P388 and M96 tumor cells; cited from earlier work.
The test system of a further data set is guinea pig atria. Particulars: cited from earlier work.
For data set [3], the system named is CEM4 lymphocytic cell lines. To be noted: CEM4 lymphocytic cell lines infected with HIV-1 (Lai strain); cited from earlier work.
The subject of a further data set is HIV-1 (Lai strain). Particulars: CEM4 cells; cited from earlier work.
The test system of the next data set is Candida albicans. To be noted: 100 μg/disc (6 mm); cited from earlier work.
A further data set has as its system Na^+/Ca^2+ exchanger. Particulars: cited from earlier work.
In a further data set the test system is HT29. The experiment in a line: SRB colorimetric cytotoxicity assay, HT29. The format is cell-based, human. Particulars: for TGI / GI50: HT29, 72 hours treatment, SRB; for CC50 / GI50: Homo sapiens; for CC50: HT-29, 72 h, read-out: LC50; for GI50: HT-29. The source says:
(§1) The aim of this assay is to evaluate the in vitro cytostatic (ability to delay or arrest tumor cell growth) or cytotoxic (ability to kill tumor cells) activity of the samples being tested.
(§2) A colorimetric assay, using sulforhodamine B (SRB) reaction has been adapted to provide a quantitative measurement of cell growth and viability (following the technique described by Skehan et al. J. Natl. Cancer Inst. 1990, 82, 1107-1112).
(§3) This form of assay employs SBS-standard 96-well cell culture microplates (Faircloth et al. Methods in Cell Science, 1988, 11(4), 201-205; Mosmann et al, Journal of Immunological Methods, 1983, 65(1-2), 55-63). All the cell lines used in this study were obtained from the American Type Culture Collection (ATCC) and derive from different types of human cancer.
(§4) Cells were maintained in Dulbecco's Modified Eagle Medium (DMEM) supplemented with 10% Fetal Bovine Serum (FBS), 2 mM L-glutamine, 100 U/mL penicillin and 100 U/mL streptomycin at 37° C., 5% CO2 and 98% humidity. For the experiments, cells were harvested from subconfluent cultures using trypsinization and resuspended in fresh medium before counting and plating.
(§5) Cells were seeded in 96 well microtiter plates, at 5×10^3-7.5×10^3 cells per well in aliquots of 150 μL, and allowed to attach to the plate surface for 18 hours (overnight) in drug free medium. After that, one control (untreated) plate of each cell line was fixed (as described below) and used for time zero reference value. Culture plates were then treated with test compounds (50 μL aliquots of 4× stock solutions in complete culture medium plus 4% DMSO) using ten serial dilutions (concentrations ranging from 10 to 0.00262 μg/mL) and triplicate cultures (1% final concentration of DMSO). After 72 hours treatment, the antitumor effect was measured by using the SRB methodology: Briefly, cells were washed twice with PBS, fixed for 15 min in 1% glutaraldehyde solution at room temperature, rinsed twice in PBS, and stained in 0.4% SRB solution for 30 min at room temperature. Cells were then rinsed several times with 1% acetic acid solution and air-dried at room temperature. SRB was then extracted in 10 mM trizma base solution and the absorbance measured in an automated spectrophotometric plate reader at 490 nm. Effects on cell growth and survival were estimated by applying the NCI algorithm (Boyd M R and Paull K D. Drug Dev. Res. 1995, 34, 91-104).
(§6) Using the mean±SD of triplicate cultures, a dose-response curve was automatically generated using nonlinear regression analysis. Three reference parameters were calculated (NCI algorithm) by automatic interpolation: GI50=compound concentration that produces 50% cell growth inhibition, as compared to control cultures; TGI=compound concentration that produces total cell growth inhibition (cytostatic effect), as compared to control cultures, and LC50=compound concentration that produces 50% net cell killing (cytotoxic effect).

The test system of another data set is A549. The experiment in a line: SRB colorimetric cytotoxicity assay, A549. The format is cell-based, human. Particulars: for TGI / GI50: A549, 72 hours treatment, SRB; for CC50 / GI50: Homo sapiens; for CC50: A549, 72 h, read-out: LC50.
Description: as §1, §2, §3, §4, §5, §6

A further data set relates to MDA-MB-231. Briefly: SRB colorimetric cytotoxicity assay, MDA-MB-231. Particulars: for CC50 / GI50: Homo sapiens; for CC50: MDA-MB-231, 72 h, read-out: LC50; for GI50 / TGI: MDA-MB-231, 72 hours treatment, SRB. The format is cell-based, human.
Description: as §1, §2, §3, §4, §5, §6

The test system of the next data set is HIV-1. To be noted: cytoprotective activity against HIV-1 infection; cited from earlier work.
Data set [4] relates to CEM-TART (CEM T-cells expressing both HIV-1 tat and rev). Particulars: CEM-TART cell line, cytotoxic activity; cited from earlier work.
Data set [5] concerns HCT-116 (human colon tumor). To be noted: HCT-116 cell line, cytotoxic activity; cited from earlier work.

Starred links: 1 amine or outer side, 2 acyl side, 3 side chain; linkers in the order of their positions; H or OH if unused. Positions of bridges follow the written chain, without caps; N, C: chain ends. Non-standard residues stand in square brackets, D forms with d. Residues, ends and D or L forms follow the SMILES beside them. ξ: configuration not given here. *: point of attachment. γ4hArg(2R,3R-(OH)2) = N=C(N)NCCC[C@H](N[*:1])[C@@H](O)[C@@H](O)C(=O)[*:2]; Heptanoyl(3R-OH,2R,4R,6-Me3) = CC(C)C[C@@H](C)[C@@H](O)[C@@H](C)C(=O)*; Gln(3S,4R-Me2) = C[C@H]([C@H](N)C(=O)O)[C@@H](C)C(N)=O; ξThr(3R)(O-yl) = C[C@@H](O[*:3])C(N[*:1])C(=O)[*:2]; dTyr(βR-OMe) = CO[C@H](c1ccc(O)cc1)[C@@H](N)C(=O)O; X6 = C[C@H](C(N[*:1])C(=O)[*:2])[C@@H](C)C(N)=O; X7 = CO[C@H](c1ccc(O)cc1)C(N[*:1])C(=O)[*:2]; dAsn(3S-OH) = NC(=O)[C@@H](O)[C@@H](N)C(=O)O; X5 = C[C@@H]1[C@@H](C(=O)*)NC(=O)[C@@H]1C; X4 = CC(C)(O)C(N[*:1])C(O)C(O)C(=O)[*:2]; ξGln(3,4-Me2) = CC(C(N)=O)C(C)C(N)C(=O)O; Abu(3S-NH2) = C[C@H](N)[C@H](N)C(=O)O; ξAsn(3ξ-OMe) = COC(C(N)=O)C(N)C(=O)O; d(aThr) = C[C@@H](O)[C@@H](N)C(=O)O; NMeQ = CN[C@@H](CCC(N)=O)C(=O)O; X1 = CC(C)CC(C)/C=C\C(O)CC(=O)*; ξThr(3R) = C[C@@H](O)C(N)C(=O)O; X3 = CCC(C)CC(C)C(O)C(C)C(=O)*; NMeL = CN[C@@H](CC(C)C)C(=O)O; X2 = CCCC(C)/C=C\C(O)CC(=O)*; Pip = O=C(O)[C@@H]1CCCCN1; NMeA = CN[C@@H](C)C(=O)O; dDap = NC[C@@H](N)C(=O)O; ξOrn = NCCCC(N)C(=O)O

The term EC50 denotes the concentration needed to bring the measured effect to its halfway point. Broadly, the GI50 is the concentration that inhibits growth by half. A higher GI50 goes with less potent growth inhibition.

Turning to papuamide A, in the data set on HIV-1RF, the EC50 entry is given as “approximately 4 ng/mL”. Besides, in data set [1], the “mean IC50” value was 0.075 µg/mL.
Regarding `CO[C@H](c1ccc(O)cc1)[C@H]1NC(=O)[C@H](CCC(N)=O)N(C)C(=O)[C@H](CC(C)C)NC(=O)[C@@H](CCCNC(=N)N)NC(=O)[C@@H]([C@@H](C)O)NC(=O)[C@H](NC(=O)[C@H]2NC(=O)[C@H](C)[C@@H]2C)[C@@H](C)OC(=O)[C@H](C)N(C)C1=O` [callipeltin B] (X5-[d(aThr)][d(aThr)][dR]L[NMeQ][dTyr(βR-OMe)][NMeA]; ester 1-C), the IC50 in [2] is given as 1.3 to >30 μg/mL.
In the case of `CO[C@H](c1ccc(O)cc1)[C@H]1NC(=O)[C@H](CCC(N)=O)N(C)C(=O)[C@H](CC(C)C)NC(=O)[C@@H](CCCN=C(N)N)NC(=O)[C@H]([C@@H](C)O)NC(=O)[C@@H](NC(=O)[C@@H](NC(=O)[C@H](O)[C@H](O)[C@H](CCCN=C(N)N)NC(=O)[C@@H](C)NC(=O)[C@H](C)[C@H](O)[C@H](C)CC(C)C)[C@@H](C)[C@@H](C)C(N)=O)[C@@H](C)OC(=O)[C@H](C)N(C)C1=O` [callipeltin A] ({Heptanoyl(3R-OH,2R,4R,6-Me3)}-[dA][γ4hArg(2R,3R-(OH)2)][Gln(3S,4R-Me2)]TT[dR]L[NMeQ][dTyr(βR-OMe)][NMeA]; ester 4-C), the inotropic effect result with guinea pig atria was “positive inotropic agent”. Further, the CD50 in data set [3] is 0.29 µg/mL. In addition, the “selectivity index (SI ratio CD50/ED50)” value in the data set on HIV-1 (Lai strain) is given as 29. The “inhibition of growth (zone)” value in the data set on Candida albicans is 30 mm. For the same molecule, the “inhibition of the Na+/Ca2+ exchanger” value in the data set on Na^+/Ca^2+ exchanger was “selective and powerful inhibitor”.
In the case of `CCCC(C)/C=C\C(O)CC(=O)N[C@@H](C(=O)N[C@@H](C(=O)N[C@H](C(=O)NC(C(=O)N[C@H]1C(=O)N[C@H](COC)C(=O)NCC(=O)N[C@@H](CC(C)C)C(=O)N(C)[C@@H](CCC(N)=O)C(=O)N[C@H]([C@H](OC)c2ccc(O)cc2)C(=O)N(C)[C@@H](C)C(=O)O[C@@H]1C)C(C)C(C)C(N)=O)[C@H](C)N)[C@@H](C)O)[C@H](O)C(N)=O` (stereo partly drawn) [Stellatolide B] (X2-[dAsn(3S-OH)][d(aThr)][Abu(3S-NH2)][ξGln(3,4-Me2)][d(aThr)][dS](Me)GL[NMeQ][dTyr(βR-OMe)][NMeA]; ester 5-C), in the data set with HT29, the TGI worked out at 1.60E−06 Molar, the CC50 worked out at 2370 nM and the GI50 was 1150 nM. In the data set with A549, the TGI amounted to 1.09E−06 Molar, the CC50 is 1920 nM and it took 640 nM to inhibit growth by half (GI50). In the data set on MDA-MB-231, the CC50 turned out to be 1730 nM, the GI50 was found to be 704 nM and the TGI came out at 1.09E−06 Molar.
As to `CO[C@H](c1ccc(O)cc1)C1NC(=O)[C@H](CCC(N)=O)N(C)C(=O)[C@H](CC(C)C)NC(=O)[C@@H](CCCNC(=N)N)NC(=O)C([C@@H](C)O)NC(=O)C(NC(=O)C(NC(=O)[C@H](O)[C@H](O)[C@H](CCCNC(=N)N)NC(=O)[C@H](CC(N)=O)NC(=O)[C@H](C)[C@H](O)[C@H](C)CC(C)C)[C@@H](C)[C@@H](C)C(N)=O)[C@@H](C)OC(=O)[C@@H]2CCCCN2C(=O)[C@@H](CC(N)=O)NC1=O` (stereo partly drawn) [neamphamide A] ({Heptanoyl(3R-OH,2R,4R,6-Me3)}-N[γ4hArg(2R,3R-(OH)2)][X6][ξThr(3R)(O-yl)][ξThr(3R)][dR]L[NMeQ][X7][dN][Pip]; ester 4-C), the EC50 in the data set with HIV-1 is around 28 nM.
As for papuamide B, the EC50 entry in the data set on HIV-1RF is listed as “approximately 4 ng/mL”.
Regarding `CCC(C)CC(C)C(O)C(C)C(=O)N[C@H](CN)C(=O)NC(C(O)C(O)C(=O)NC(C(=O)N[C@H]1C(=O)N[C@H]([C@@H](C)O)C(=O)NC(CCCN)C(=O)N[C@@H](CC(C)C)C(=O)N(C)[C@@H](CCC(N)=O)C(=O)NC(C(OC)C(N)=O)C(=O)N[C@H](CC(N)=O)C(=O)N(C)[C@@H](CC(C)C)C(=O)O[C@@H]1C)C(C)C(C)C(N)=O)C(C)(C)O` (stereo partly drawn) [theopapuamide] (X3-[dDap][X4][ξGln(3,4-Me2)][d(aThr)][d(aThr)][ξOrn]L[NMeQ][ξAsn(3ξ-OMe)][dN][NMeL]; ester 4-C), the EC50 was 500 nM in [4] and 900 nM in [5].
For the molecule `COC[C@H]1NC(=O)[C@H](NC(=O)C(NC(=O)[C@@H](NC(=O)[C@H](NC(=O)[C@H](NC(=O)CC(O)/C=C\C(C)CC(C)C)[C@H](O)C(N)=O)[C@@H](C)O)[C@H](C)N)C(C)C(C)C(N)=O)[C@@H](C)OC(=O)[C@H](C)N(C)C(=O)[C@@H]([C@H](OC)c2ccc(O)cc2)NC(=O)[C@H](CCC(N)=O)N(C)C(=O)[C@H](CC(C)C)NC(=O)CNC1=O` (stereo partly drawn) [Stellatolide A] (X1-[dAsn(3S-OH)][d(aThr)][Abu(3S-NH2)][ξGln(3,4-Me2)][d(aThr)][dS](Me)GL[NMeQ][dTyr(βR-OMe)][NMeA]; ester 5-C), the TGI in the data set with HT29 came to 8.88E−07 Molar; in the data set with A549 it was 1.97E−07 Molar; with MDA-MB-231, 4.95E−07 Molar. Moreover, the figures for the CC50 in the data set on HT29, in the data set on A549 and in the data set on MDA-MB-231 were 1330 nM, 406 nM and 761 nM, respectively. The concentration for 50% growth inhibition (GI50) in the data set with HT29 stood at 603 nM; in the data set on A549, 101 nM; in the data set with MDA-MB-231, 330 nM.

The values are drawn from US20110105409A1, “Anticancer Compounds” (priority 2008, published 2011).
